These results are taken from paper PMC3226707 (Journal of molecular biology, 2011).

Where no end group is shown, it is not given here.

As usually defined, the Kd is the concentration at which binding is half-saturated.

One assay addresses Act-EF34. As to conditions: binding to Act-EF34; cited from earlier work.
The target of assay [1] is Act-EF34 (C-terminal EF hand domain of α-actinin, actinin-2 residues 823–894) (Homo sapiens, UniProt P35609). The assay is described as follows: Isothermal titration calorimetry of palladin peptides with Act-EF34. The format is binding. Conditions: for ΔH / ΔG / stoichiometry of binding: ITC; for ΔH / ΔG: 27 °C; for ΔH: one-binding site model; for ΔG: calculated using standard thermodynamic equations; for stoichiometry of binding: Act-EF34 titrations.

A further assay has as its target T1, palladin peptide WT (Homo sapiens).
T1 chain: Ac-HGQTPAAFLSALLPSQP
The assay is described as follows: ITC. (ITC needs no label: the signal is the heat of the interaction.)

Regarding AETAANRICKVLAVNQE [Actinin N-term], the Kd on Act-EF34 is 0.568 ± 0.27 µM.

For the molecule AVATVVAAVDMARVRE [Titin Zr1], at Act-EF34, the Kd is 0.2 to 0.3 µM.

Regarding AVATVVAAVDQARVRE [Titin Zr7], the Kd at Act-EF34 was 0.1 to 0.25 µM.

Turning to Ac-HGQTPAAFLSALLPSQP [Palladin (WT)], in assay [1], the affinity, expressed as Kd, was 15.7 ± 7.7 µM; the ΔH is -4.5 ± 0.2 kcal/mol; the ΔG is given as −6.6 kcal/mol*K; the stoichiometry of binding is recorded as around 1.

Consider Ac-HGQTSAAFLSALLPSQP [Palladin (FX)], for which, in assay [1], the Kd is 19.5 ± 4 µM, the ΔH is -6.0 ± 0.2 kcal/mol, the ΔG is recorded as −6.5 kcal/mol*K and the stoichiometry of binding was around 1.

In the case of FVPKVVISAAKAKEQE [Titin Zr3], the Kd at Act-EF34 was above 4 µM.

B1: Act-EF34 (alpha-actinin-2) 823-894 (protein)
chain: ADTDTAEQVIASFRILASDKPYILAEELRRELPPDQAQYCIKRMPAYSGPGSVPGALDYAAFSSALYGESDL
B1 yielded a Kd with palladin peptide WT of 15.7 µM.
